Reference: the NIST ThermoML archive (doi:10.1021/je900596d)

Conditions: for mass density: Fluid (supercritical or subcritical phases), Vibrating tube method; for vapor or sublimation pressure: Liquid, Closed cell (Static) method

FC(F)=C(F)C(F)(F)F [hexafluoropropene]
mass density [kg/m3]
Conditions | 358.16 K | 362.9 K
6.3 kPa | – | 0.34
6.7 kPa | 0.18 | –
7.2 kPa | 0.21 | –
7.5 kPa | 0.23 | –
7.7 kPa | 0.26 | –
8.4 kPa | – | 0.44
8.5 kPa | 0.27 | –
8.8 kPa | 0.31 | –
9.2 kPa | 0.32 | –
9.8 kPa | 0.34 | –
10.7 kPa | – | 0.55
12.4 kPa | 0.45 | –
13.4 kPa | 0.5 | –
14.5 kPa | 0.6 | –
15.1 kPa | – | 0.65
15.5 kPa | 0.63 | –
16.5 kPa | 0.69 | –
17.2 kPa | – | 0.88
17.6 kPa | 0.76 | –
19.6 kPa | 0.84 | –
20.7 kPa | 0.88 | –
20.8 kPa | – | 1.04
21.7 kPa | 0.92 | –
22.7 kPa | 1.01 | –
23 kPa | – | 1.15
23.9 kPa | 1.07 | –
25.2 kPa | – | 1.27
25.9 kPa | 1.13 | –
26.9 kPa | 1.2 | –
27.9 kPa | 1.24 | –
29 kPa | 1.31 | –
30 kPa | 1.37 | –
31 kPa | 1.42 | –
31.8 kPa | – | 1.53
32 kPa | 1.45 | –
33 kPa | 1.5 | –
34 kPa | 1.62 | 1.65
35.1 kPa | 1.63 | –
36.1 kPa | 1.72 | –
37.4 kPa | – | 1.78
39.1 kPa | 1.8 | –
40.1 kPa | 1.85 | –
40.2 kPa | – | 2
41.2 kPa | 1.9 | –
42.2 kPa | 1.99 | –
42.3 kPa | – | 2.22
45.3 kPa | 2.13 | –
47.8 kPa | – | 2.29
52.2 kPa | 2.54 | –
57.7 kPa | – | 2.87
58.8 kPa | 2.84 | –
64.3 kPa | – | 3.19
65.5 kPa | 3.31 | –
72.2 kPa | 3.58 | –
75.1 kPa | – | 3.75
79 kPa | 3.91 | –
81.7 kPa | – | 4.07
85.8 kPa | 4.34 | –
88 kPa | – | 4.26
92.6 kPa | 4.61 | –
96.7 kPa | – | 4.85
99.4 kPa | 4.96 | –
103.1 kPa | – | 5.2
109.4 kPa | – | 5.38
115.5 kPa | 5.84 | –
122.1 kPa | – | 6.16
124.6 kPa | 6.23 | –
128.4 kPa | – | 6.44
133.8 kPa | 6.76 | –
134.6 kPa | – | 6.83
140.8 kPa | – | 7.19
142.9 kPa | 7.23 | –
146.9 kPa | – | 7.41
152 kPa | 7.73 | –
153.1 kPa | – | 7.6
161.1 kPa | 8.2 | –
162.6 kPa | – | 8.2
170.1 kPa | 8.69 | –
172.6 kPa | – | 8.83
179.2 kPa | 9.15 | –
183.5 kPa | – | 9.3
188.3 kPa | 9.64 | –
191.9 kPa | – | 9.53
197.2 kPa | 10.14 | –
201.8 kPa | 10.33 | –
205.9 kPa | – | 10.23
215.2 kPa | 11.03 | –
217.1 kPa | – | 10.89
228.6 kPa | 11.76 | –
239.3 kPa | – | 12.29
241.9 kPa | 12.39 | –
250.5 kPa | – | 12.86
255.2 kPa | 13.18 | –
261.7 kPa | – | 13.26
268.5 kPa | 13.87 | –
272.8 kPa | – | 13.91
281.6 kPa | 14.57 | –
284 kPa | – | 14.66
294.9 kPa | – | 14.96
295.2 kPa | 15.37 | –
305.9 kPa | – | 15.65
308.9 kPa | 16.07 | –
322.3 kPa | – | 16.67
323.1 kPa | 16.83 | –
337.5 kPa | 17.58 | –
338.5 kPa | – | 17.36
352.1 kPa | 18.44 | –
354.9 kPa | – | 18.21
366.8 kPa | 19.21 | –
370.9 kPa | – | 19.21
381.5 kPa | 19.95 | –
386.8 kPa | – | 19.93
396.2 kPa | 20.78 | –
402.6 kPa | – | 20.85
411 kPa | 21.59 | –
418.2 kPa | – | 21.77
427.6 kPa | 22.57 | –
444 kPa | 23.52 | –
449.3 kPa | – | 23.6
460.4 kPa | 24.33 | –
476.7 kPa | 25.35 | –
485.1 kPa | – | 25.57
492.9 kPa | 26.26 | –
500.3 kPa | – | 26.4
509.2 kPa | 27.13 | –
520.6 kPa | – | 27.39
525.3 kPa | 28.12 | –
540.4 kPa | – | 28.38
541.5 kPa | 29.02 | –
557.6 kPa | 29.96 | –
560.3 kPa | – | 29.54
575.1 kPa | 31 | –
580 kPa | – | 30.72
592.7 kPa | 31.99 | –
599.7 kPa | – | 31.79
610.1 kPa | 32.94 | –
619.3 kPa | – | 32.97
627.5 kPa | 34 | –
638.8 kPa | – | 34.15
645.1 kPa | 35.06 | –
658.1 kPa | – | 35.19
663.8 kPa | 36.18 | –
677.4 kPa | – | 36.24
682.3 kPa | 37.25 | –
696.6 kPa | – | 37.68
700.8 kPa | 38.41 | –
715.6 kPa | – | 38.68
719.1 kPa | 39.53 | –
737.3 kPa | 40.62 | –
753.3 kPa | – | 40.79
755.2 kPa | 41.68 | –
772.1 kPa | – | 41.86
773.2 kPa | 42.77 | –
790.7 kPa | – | 43.17
791.1 kPa | 43.9 | –
808.6 kPa | 44.92 | –
809.2 kPa | – | 44.11
827.4 kPa | – | 45.36
843.9 kPa | 47.16 | –
845.6 kPa | – | 46.55
861.2 kPa | 48.3 | –
863.7 kPa | – | 47.41
878.4 kPa | 49.34 | –
881.6 kPa | – | 48.62
895.4 kPa | 50.38 | –
899.5 kPa | – | 49.68
912.3 kPa | 51.52 | –
917.1 kPa | – | 50.72
929.2 kPa | 52.65 | –
934.7 kPa | – | 52.13
945.9 kPa | 53.68 | –
952.2 kPa | – | 53.09
964.1 kPa | 54.95 | –
969.4 kPa | – | 54.03
981.4 kPa | 56.09 | –
999 kPa | 57.2 | –
1004 kPa | 57.55 | –
1037.2 kPa | 59.89 | –
1056.7 kPa | 61.12 | –
1079.5 kPa | 62.72 | –
1113.6 kPa | 65.06 | –
1151.3 kPa | 67.79 | –
1177.8 kPa | 69.69 | –
1204.6 kPa | 71.61 | –
1231.5 kPa | 73.4 | –
1251 kPa | 74.95 | –
1277.5 kPa | 76.93 | –
1297.2 kPa | 78.23 | –
1318.3 kPa | 79.8 | –
1351 kPa | 82.19 | –
1384.5 kPa | 84.6 | –
1419.6 kPa | 87.38 | –
1453.8 kPa | 89.96 | –
1487.2 kPa | 92.64 | –
1522.4 kPa | 95.5 | –
1557 kPa | 98.35 | –
1592 kPa | 101.11 | –
1624.7 kPa | 103.88 | –
1659.3 kPa | 106.85 | –
1677.7 kPa | 108.37 | –
1712.3 kPa | 111.38 | –
1748.1 kPa | 114.59 | –
1780.9 kPa | 117.54 | –
1815.7 kPa | 120.8 | –
1848.2 kPa | 123.82 | –
1883.1 kPa | 127.18 | –
1916.7 kPa | 130.47 | –
1948.8 kPa | 133.66 | –
1982.5 kPa | 137.05 | –
2016.7 kPa | 140.6 | –
2051.6 kPa | 144.28 | –
2085.7 kPa | 147.98 | –
2118.7 kPa | 151.7 | –
2152.9 kPa | 155.54 | –
2185.6 kPa | 159.34 | –
2250.5 kPa | 167.24 | –
2283.4 kPa | 171.42 | –
2316.3 kPa | 175.71 | –
2349.2 kPa | 180.05 | –
2381.8 kPa | 184.6 | –
2414.3 kPa | 189.16 | –
2462.8 kPa | 196.45 | –
2529.2 kPa | 206.94 | –
2562.6 kPa | 212.61 | –
2581.2 kPa | 215.74 | –
2616.7 kPa | 222.24 | –
2635.2 kPa | 225.67 | –
2669.9 kPa | 232.45 | –
2703.7 kPa | 239.44 | –
2738.3 kPa | 247.03 | –
2771.6 kPa | 254.87 | –
2806.3 kPa | 263.68 | –
2839.2 kPa | 272.73 | –
2872.4 kPa | 282.77 | –
2905.9 kPa | 293.88 | –
2939.1 kPa | 305.79 | –
2972 kPa | 319.7 | –
3000.1 kPa | 333.22 | –
3003 kPa | 334.75 | –
3005.7 kPa | 336.23 | –
3008.2 kPa | 337.55 | –
3010.9 kPa | 338.92 | –
3013.2 kPa | 340.27 | –
3015.5 kPa | 341.83 | –
3017.6 kPa | 343.29 | –
3019.8 kPa | 344.7 | –
3022.4 kPa | 346.21 | –
3025.8 kPa | 348.17 | –
3027.8 kPa | 349.31 | –
3031.6 kPa | 351.6 | –
3035.5 kPa | 354.08 | –
3037.5 kPa | 355.4 | –
3041.3 kPa | 357.97 | –
3045.1 kPa | 360.72 | –
3047.1 kPa | 362.14 | –
3050.9 kPa | 364.96 | –
3054.3 kPa | 367.81 | –
3057.8 kPa | 370.74 | –
3061.2 kPa | 373.72 | –
3064.5 kPa | 376.75 | –
3067.7 kPa | 379.88 | –
3071 kPa | 383.12 | –
3074 kPa | 386.4 | –
3077 kPa | 389.78 | –

Conditions | vapor or sublimation pressure [kPa]
358.26 K | 3095.1
358.76 K | 3128.1
